Test results published in the supplement of paper PMC10307832.

What was measured:
Assay in all cases: relative viability (nuclei count vs DMSO), 5 days (fraction); higher = more cells survive
[1] = compound: CN(C/C=C/C1=CC=C(C=C1)Cl)CC2=CC=CC=C2N(CCO)S(=O)(=O)C3=CC=C(C=C3)OC [KN-93] + Cc1nc(Nc2ncc(C(=O)Nc3c(C)cccc3Cl)s2)cc(N2CCN(CCO)CC2)n1 [Dasatinib] (partner 0.075 µM)
In short: (§1)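 Relative viability was taken as the ratio of nuclei in treated wells to nuclei in vehicle wells. Lung cancer cell lines in 1536-well plates received compounds by pin tool one day after seeding, either one drug alone or a fixed anchor-drug dose plus five library-drug doses (not always all listed) in √10 steps. Nuclei were counted on 4× images after 5 days of treatment, and values are medians of duplicate plates.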

[2] = compound: CN(C/C=C/C1=CC=C(C=C1)Cl)CC2=CC=CC=C2N(CCO)S(=O)(=O)C3=CC=C(C=C3)OC [KN-93] + Cc1cc(Nc2cc(N3CCN(C)CC3)nc(Sc3ccc(NC(=O)C4CC4)cc3)n2)n[nH]1 [Tozasertib] (partner 0.1 µM)
In short: as §1

[3] = compound: CN(C/C=C/C1=CC=C(C=C1)Cl)CC2=CC=CC=C2N(CCO)S(=O)(=O)C3=CC=C(C=C3)OC [KN-93] + N=C(N)NC(=N)NCCc1ccccc1 [Phenformin] (partner 250 µM)
In short: as §1

[4] = compound: CN(C/C=C/C1=CC=C(C=C1)Cl)CC2=CC=CC=C2N(CCO)S(=O)(=O)C3=CC=C(C=C3)OC [KN-93] + COc1cccc2cc(-c3nc([C@H]4CC[C@H](C(=O)O)CC4)n4ncnc(N)c34)[nH]c12 [OSI-027] (partner 0.5 µM)
In short: as §1

[5] = compound: CN(C/C=C/C1=CC=C(C=C1)Cl)CC2=CC=CC=C2N(CCO)S(=O)(=O)C3=CC=C(C=C3)OC [KN-93] + COc1cc2c(Oc3ccc(NC(=O)C4(C(=O)Nc5ccc(F)cc5)CC4)cc3F)ccnc2cc1OCCCN1CCOCC1 [Foretinib] (partner 0.25 µM)
In short: as §1

[6] = compound: CN(C/C=C/C1=CC=C(C=C1)Cl)CC2=CC=CC=C2N(CCO)S(=O)(=O)C3=CC=C(C=C3)OC [KN-93] + CCNC(=O)c1noc(-c2cc(C(C)C)c(O)cc2O)c1-c1ccc(CN2CCOCC2)cc1 [Luminespib] (partner 0.01 µM)
In short: as §1

[7] = compound: CN(C/C=C/C1=CC=C(C=C1)Cl)CC2=CC=CC=C2N(CCO)S(=O)(=O)C3=CC=C(C=C3)OC [KN-93]
In short: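 For viability, nuclei in each treated well were divided by nuclei in vehicle wells and the median across plates was taken. Lung cancer cell lines in 1536-well plates were pinned with five library-drug doses (not always all listed) spaced by √10, cultured 5 days without medium change, and imaged at 4× after Hoechst staining, with plates passing only at control CV below 25% and at least one doubling.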

[8] = compound: CN(C/C=C/C1=CC=C(C=C1)Cl)CC2=CC=CC=C2N(CCO)S(=O)(=O)C3=CC=C(C=C3)OC [KN-93] + NC(=O)Nc1cc(-c2cccc(F)c2)sc1C(=O)N[C@H]1CCCNC1 [AZD7762] (partner 0.2 µM)
In short: as §1

[9] = compound: CN(C/C=C/C1=CC=C(C=C1)Cl)CC2=CC=CC=C2N(CCO)S(=O)(=O)C3=CC=C(C=C3)OC [KN-93] + Nc1nc2[nH]cc(CCc3ccc(C(=O)N[C@@H](CCC(=O)O)C(=O)O)cc3)c2c(=O)[nH]1 [Pemetrexed] (partner 0.2 µM)
In short: as §1

[10] = compound: CN(C/C=C/C1=CC=C(C=C1)Cl)CC2=CC=CC=C2N(CCO)S(=O)(=O)C3=CC=C(C=C3)OC [KN-93] + CC(=O)c1c(C)c2cnc(Nc3ccc(N4CCNCC4)cn3)nc2n(C2CCCC2)c1=O [Palbociclib] (partner 0.5 µM)
In short: as §1

[11] = compound: CN(C/C=C/C1=CC=C(C=C1)Cl)CC2=CC=CC=C2N(CCO)S(=O)(=O)C3=CC=C(C=C3)OC [KN-93] + CC(=O)Nc1cccc(-n2c(=O)n(C3CC3)c(=O)c3c(Nc4ccc(I)cc4F)n(C)c(=O)c(C)c32)c1 [Trametinib] (partner 0.02 µM)
In short: as §1

[12] = compound: CN(C/C=C/C1=CC=C(C=C1)Cl)CC2=CC=CC=C2N(CCO)S(=O)(=O)C3=CC=C(C=C3)OC [KN-93] + O=C(c1cc(Cc2n[nH]c(=O)c3ccccc23)ccc1F)N1CCN(C(=O)C2CC2)CC1 [Olaparib] (partner 8 µM)
In short: as §1

[13] = compound: CN(C/C=C/C1=CC=C(C=C1)Cl)CC2=CC=CC=C2N(CCO)S(=O)(=O)C3=CC=C(C=C3)OC [KN-93] + Nc1ncn([C@H]2C[C@H](O)[C@@H](CO)O2)c(=O)n1 [Decitabine] (partner 2 µM)
In short: as §1

[14] = compound: CN(C/C=C/C1=CC=C(C=C1)Cl)CC2=CC=CC=C2N(CCO)S(=O)(=O)C3=CC=C(C=C3)OC [KN-93] + O=C(CCCCCCC(=O)Nc1ccccc1)NO [Vorinostat] (partner 1 µM)
In short: as §1

## NCI-H1623
[1]; first compound 0.08 µM
  relative viability: 0.647
[1]; first compound 0.253 µM
  relative viability: 0.525
[1]; first compound 2.53 µM
  relative viability: 0.536
[1]; first compound 8 µM
  relative viability: 0.393
[2]; first compound 0.08 µM
  relative viability: 0.445
[2]; first compound 0.253 µM
  relative viability: 0.41
[2]; first compound 2.53 µM
  relative viability: 0.41
[2]; first compound 8 µM
  relative viability: 0.439
[3]; first compound 0.08 µM
  relative viability: 0.61
[3]; first compound 0.253 µM
  relative viability: 0.592
[3]; first compound 2.53 µM
  relative viability: 0.672
[3]; first compound 8 µM
  relative viability: 0.453
[4]; first compound 0.08 µM
  relative viability: 0.418
[4]; first compound 0.253 µM
  relative viability: 0.36
[4]; first compound 2.53 µM
  relative viability: 0.393
[4]; first compound 8 µM
  relative viability: 0.416
[5]; first compound 0.08 µM
  relative viability: 0.861
[5]; first compound 0.253 µM
  relative viability: 0.796
[5]; first compound 2.53 µM
  relative viability: 0.994
[5]; first compound 8 µM
  relative viability: 0.726
[6]; first compound 0.08 µM
  relative viability: 0.44
[6]; first compound 0.253 µM
  relative viability: 0.414
[6]; first compound 2.53 µM
  relative viability: 0.654
[6]; first compound 8 µM
  relative viability: 0.457
[7]; 0.08 µM
  relative viability: 0.95
[7]; 0.253 µM
  relative viability: 0.984
[7]; 2.53 µM
  relative viability: 0.956
[7]; 8 µM
  relative viability: 0.958

## NCI-H1648
[8]; first compound 0.08 µM
  relative viability: 0.647
[8]; first compound 0.253 µM
  relative viability: 0.727
[8]; first compound 2.53 µM
  relative viability: 0.82
[8]; first compound 8 µM
  relative viability: 0.663
[2]; first compound 0.08 µM
  relative viability: 0.426
[2]; first compound 0.253 µM
  relative viability: 0.378
[2]; first compound 2.53 µM
  relative viability: 0.389
[2]; first compound 8 µM
  relative viability: 0.331
[9]; first compound 0.08 µM
  relative viability: 0.717
[9]; first compound 0.253 µM
  relative viability: 0.874
[9]; first compound 2.53 µM
  relative viability: 0.788
[9]; first compound 8 µM
  relative viability: 0.716
[4]; first compound 0.08 µM
  relative viability: 0.263
[4]; first compound 0.253 µM
  relative viability: 0.254
[4]; first compound 2.53 µM
  relative viability: 0.229
[4]; first compound 8 µM
  relative viability: 0.202
[10]; first compound 0.08 µM
  relative viability: 0.251
[10]; first compound 0.253 µM
  relative viability: 0.259
[10]; first compound 2.53 µM
  relative viability: 0.295
[10]; first compound 8 µM
  relative viability: 0.291
[11]; first compound 0.08 µM
  relative viability: 0.403
[11]; first compound 0.253 µM
  relative viability: 0.445
[11]; first compound 2.53 µM
  relative viability: 0.381
[11]; first compound 8 µM
  relative viability: 0.407
[12]; first compound 0.08 µM
  relative viability: 0.56
[12]; first compound 0.253 µM
  relative viability: 0.724
[12]; first compound 2.53 µM
  relative viability: 0.568
[12]; first compound 8 µM
  relative viability: 0.711
[13]; first compound 0.08 µM
  relative viability: 0.459
[13]; first compound 0.253 µM
  relative viability: 0.45
[13]; first compound 2.53 µM
  relative viability: 0.557
[13]; first compound 8 µM
  relative viability: 0.34
[14]; first compound 0.08 µM
  relative viability: 0.485
[14]; first compound 0.253 µM
  relative viability: 0.423
[14]; first compound 2.53 µM
  relative viability: 0.322
[14]; first compound 8 µM
  relative viability: 0.807
[7]; 0.08 µM
  relative viability: 0.704
[7]; 0.253 µM
  relative viability: 0.792
[7]; 2.53 µM
  relative viability: 0.968
[7]; 8 µM
  relative viability: 0.526
